This is an account of results in paper PMC12308805, “Ultrahigh-Throughput Virtual Screening Strategies against PPI Targets: A Case Study of STAT Inhibitors” (Journal of Chemical Information and Modeling, 2025).

As usually defined, the IC50 is the midpoint of a concentration-inhibition curve. By Kd is commonly meant a measure of binding affinity in units of concentration.

For one test, the system named is STAT5b. More on the design: method as in literature. Conditions: training set for retrospective virtual screening with 6MBW; known actives for STAT5b found in the literature; ref literature; cited from earlier work.
Test [1] addresses T1, STAT3 (127–770) SH2 domain (Homo sapiens, UniProt P40763).
T1 construct: For STAT3 (127–770), the final concentration of the protein was 200 nM; made in house
The experiment in a line: Fluorescence polarization assay (FP-assay), STAT3 SH2 domain. The class given is binding. Set-up: key to identified as active in FP-assay: A compound was identified as active, if it had a mean IC50 value under 100 μM. The following applies: for IC50: FP-assay, mean IC50, at least three biological replicates. The method, then: (§1) The respective protocols for the expression and purification of the STAT3 SH2 and STAT5b SH2 domains were published in our recent works. Fluorescence polarization assays (FP-assays) were performed on a Molecular Devices SpectraMax iD5Multimode Microplate Reader (San Jose, CA, USA) using Greiner black 384-well flat-bottom nonbinding microplates with 40 μL final well volumes. The fluorescent peptides (5-FAM-G(pTyr)-LPQTV-NH2 and 5-FAM-G(pTyr)-LVLDKW-NH2, purchased from GenScript Biotech Ltd., Piscataway, NJ, USA), as well as the proteins, were diluted with a buffer containing 50 mM NaCl, 10 mM HEPES (4-(2-hydroxyethyl)-1-piperazineethanesulfonic acid), 1 mM EDTA (ethylenediaminetetraacetic acid), 2 mM DTT (dithiothreitol), and 0.1% Triton X-100, pH 7.5. For STAT3 (127–770), the final concentration of the protein was 200 nM, and the fluorescent peptide (5-FAM-G(pTyr)-LPQTV-NH2) was added at a final concentration of 5 nM; for STAT5b (136–703), the final concentration of the protein was 500 nM, and the fluorescent peptide (5-FAM-G(pTyr)-LVLDKW-NH2) was added at a final concentration of 10 nM. The wells were treated with varying concentrations of inhibitors (1250 to 0.11 μM final concentrations). The final DMSO content was 2.5%. After mixing, the protein and inhibitors were incubated at room temperature for 30 min, then the fluorescent peptide was added, and the plate was incubated for another 20 min prior to the fluorescence readout (extinction wavelength: 475 nm, emission wavelength: 520 nm). The measurements were carried out in at least three biological replicates. Fluorescence polarization was calculated from the perpendicular and parallel fluorescence intensities and then plotted against concentration. The IC50 values were determined after fitting quadratic dose–response curves on the data points in GraphPad Prism 8.0.1. […] All plotted curves and data points for the hit compounds are included in Section 2 of the Supporting Information.
(In general: Polarisation of emitted light reports the rotation of a fluorescent probe.)

Test [2] concerns the target T2, STAT5b N-terminal domain (NTD) (Homo sapiens, UniProt P51692).
T2 sequence (P51692 1-126 limits assumed): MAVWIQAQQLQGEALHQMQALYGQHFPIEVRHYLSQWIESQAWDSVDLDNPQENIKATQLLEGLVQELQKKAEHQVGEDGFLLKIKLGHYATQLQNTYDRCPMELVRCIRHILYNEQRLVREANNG
The experiment in a line: Isothermal titration calorimetry (ITC), STAT5b-NTD. More on the design: key to identified as active in ITC: A compound was identified as active, if it had a mean Kd value under 100 μM. The following applies: for Kd: ITC, 25 °C, 1X PBS pH 7.4, 8% DMSO, single-site fit. It is filed as binding. The method, then: The detailed protocol for the expression and purification of the STAT5b-NTD was described in our recent work. ITC measurements were carried out on a MicroCal PEAQ-ITC microcalorimeter (Malvern Instruments, Worcestershire, UK). All protein and ligand solutions were composed of 1X PBS (pH 7.4) buffer containing 8% (V/V) DMSO to avoid buffer mismatch. Protein solutions containing 25-26 μM protein were prepared in batches prior to measurements by diluting 676 μM stock solution (stored in 1X PBS (pH 7.4) buffer at -80 °C) warmed to room temperature with 1X PBS (pH 7.4) buffer solution and an appropriate amount of DMSO. Ligand solutions were prepared by first dissolving the ligands in DMSO to acquire a 50 mM stock solution, which was then diluted to 1 mM (in the case of […]_M2 ligand) or 4 mM (all other ligands) concentration using 1X PBS (pH 7.4) buffer solution. Appropriate amounts of DMSO were also added to the solution containing 1 mM ligand to yield a 8% (V/V) DMSO content. The protein solution was loaded into the sample cell in a volume of 200 μL and was titrated at 25 °C with the ligand solution at a stirring speed of 1000 rpm and a reference heat rate of 10 μcal/s in a high feedback mode. Used initial delay was 120 s, and the injection program was composed of an initial first injection with 0.5 μL over 2 s, followed by 18 injections with 2 μL over 4 s. Injections were performed every 180 s. Blank measurements consisting of titrating the ligand into the buffer (1X PBS (pH 7.4) containing 8% (V/V) DMSO) were carried out to correct for the heat of dilution for all ligands using the appropriate injection program. Data were analyzed using the MicroCal PEAQ-ITC analysis software (version 1.22) by fitting a single-site binding curve. […] Binding curves of the identified active compounds are included in Supporting Information Figures S3-S5.
A general note: ITC needs no label: the signal is the heat of the interaction.

The target of test [3] is T3, STAT5b (136–703) SH2 domain (Homo sapiens, UniProt P51692).
T3 sequence (P51692 136-703): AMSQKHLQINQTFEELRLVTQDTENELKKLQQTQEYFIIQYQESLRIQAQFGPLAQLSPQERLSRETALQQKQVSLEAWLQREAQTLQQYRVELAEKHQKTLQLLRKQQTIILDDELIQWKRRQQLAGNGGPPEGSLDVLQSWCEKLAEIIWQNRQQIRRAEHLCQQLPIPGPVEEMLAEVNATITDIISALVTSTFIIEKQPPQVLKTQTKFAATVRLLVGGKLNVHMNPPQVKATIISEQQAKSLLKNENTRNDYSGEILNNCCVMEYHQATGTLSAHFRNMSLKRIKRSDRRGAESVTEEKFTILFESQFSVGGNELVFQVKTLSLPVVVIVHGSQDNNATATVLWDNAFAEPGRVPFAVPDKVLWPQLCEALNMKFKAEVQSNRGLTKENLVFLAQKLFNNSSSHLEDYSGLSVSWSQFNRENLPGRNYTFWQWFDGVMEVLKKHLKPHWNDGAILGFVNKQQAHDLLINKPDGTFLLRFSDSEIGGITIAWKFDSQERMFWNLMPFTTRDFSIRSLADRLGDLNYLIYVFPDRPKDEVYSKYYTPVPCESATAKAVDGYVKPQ
The test is described as follows: Fluorescence polarization assay (FP-assay), STAT5b SH2 domain. The class given is binding. More on the design: key to identified as active in FP-assay: A compound was identified as active, if it had a mean IC50 value under 100 μM. Conditions: for IC50: FP-assay, mean IC50, at least three biological replicates. The method, then:
as §1

T1 sequence (P40763 127-770): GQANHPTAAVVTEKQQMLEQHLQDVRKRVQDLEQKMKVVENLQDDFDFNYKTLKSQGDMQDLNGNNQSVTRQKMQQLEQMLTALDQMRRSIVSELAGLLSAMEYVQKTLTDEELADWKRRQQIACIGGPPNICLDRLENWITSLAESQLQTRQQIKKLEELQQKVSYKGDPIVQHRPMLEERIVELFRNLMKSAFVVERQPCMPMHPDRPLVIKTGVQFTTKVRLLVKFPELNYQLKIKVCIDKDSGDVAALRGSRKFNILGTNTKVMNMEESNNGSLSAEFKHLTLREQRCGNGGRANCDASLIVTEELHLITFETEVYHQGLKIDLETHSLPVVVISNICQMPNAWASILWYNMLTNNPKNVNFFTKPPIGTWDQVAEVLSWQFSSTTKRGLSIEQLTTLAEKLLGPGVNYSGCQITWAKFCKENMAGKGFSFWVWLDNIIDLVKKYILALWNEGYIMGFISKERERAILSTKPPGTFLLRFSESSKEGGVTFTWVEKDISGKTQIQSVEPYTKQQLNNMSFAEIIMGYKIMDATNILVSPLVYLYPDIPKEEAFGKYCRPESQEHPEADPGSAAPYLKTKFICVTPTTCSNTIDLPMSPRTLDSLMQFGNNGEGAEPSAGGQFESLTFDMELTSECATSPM

As for `CC(C)(C)c1cc(CN(C(=O)CN(Cc2ccc(Cl)cc2)S(=O)(=O)c2c(F)c(F)c(F)c(F)c2F)c2ccc(C(=O)O)c(O)c2)cc(C(C)(C)C)c1` [13a, CC(C)(C)c1cc(CN(C(=O)CN(Cc2ccc(Cl)cc2)S(=O)(=O)c2c(F)c(F)c(F)c(F)c2F)c2ccc(C(=O)O)c(O)c2)cc(C(C)(C)C)c1], the “Type (Active / decoy)” value in the test on STAT5b is on record as “Active”.

For the compound `Cc1cccc(OC[C@@H](O)CN(C(=O)NC[C@H]2CC(C(N)=O)=NO2)C(C)C)c1` [S3_E7, Cc1cc(ccc1)OC[C@@H](O)CN(C(C)C)C(=O)NC[C@H]2CC(=NO2)C(=O)N], in test [1], the “identified as active in FP-assay” value is on record as “active” and the IC50 was 62.7 ± 25.1 µM.

On to `NCCN(Cc1csc(COc2ccccc2)n1)C[C@@H](O)CO` [S3_E8, OC[C@H](O)CN(CC[NH2])Cc1csc(n1)COc2ccccc2], for which, in test [1], the “identified as weakly binding in FP-assay” value is given as “weakly binding (A weakly binding compound (mean IC50 value higher than 100 μM))” and half-maximal inhibition (IC50) required 454 ± 181 µM.

For the compound `C[C@@H](NC(=O)[C@@H]1CCCC[C@@H]1C(=O)O)c1ccncc1` [S3_M2, c1cnccc1[C@@H](C)NC(=O)[C@@H]2CCCC[C@@H]2C([OH])=O], in test [1], the “identified as active in FP-assay” value was “active” and the IC50 is 80 ± 34.3 µM.

Consider `O=C(O)c1[nH]c2ccccc2c1C(=O)O` [S3_M5, [OH]C(=O)c([nH]1)c(C(=O)[OH])c(c12)cccc2], for which, in test [1], the “identified as active in FP-assay” value was “active” and the IC50 was determined as 53.2 ± 46.9 µM.

For `O=C(O)CCCn1ccc2c(nnc3ccnn32)c1=O` [S3_M13, n1ccc(nn2)n1c(c23)ccn(c3=O)CCCC([OH])=O], in test [1], the “identified as active in FP-assay” value is reported as “active” and half-maximal inhibition (IC50) was put at 64.4 ± 17.7 µM.

Regarding `Nc1ccc(C(=O)O)c(C(=O)O)c1` [S3_M15, Nc1cc(C([OH])=O)c(C([OH])=O)cc1], in test [1], the “identified as weakly binding in FP-assay” value is given as “weakly binding (A weakly binding compound (mean IC50 value higher than 100 μM))”.

Consider `Cc1cc(=O)c(C(=O)O)c(O)[nH]1` [S3_M16, [OH]C(=O)c1c(=O)cc(C)[nH]c1O], for which half-maximal inhibition in test [1] (IC50) required 111 ± 64.7 µM.

Turning to `Cc1c(O)ccc2c(CC(=O)NCC(=O)NCC(=O)O)cc(=O)oc12` [S3_O10, Cc1c(O)ccc2c(CC(=O)NCC(=O)NCC(=O)[OH])cc(=O)oc12], in test [1], the “identified as active in FP-assay” value was “active” and it took 99.9 ± 55.6 µM to reach half-maximal inhibition (IC50).

Regarding `O=C(NCC[C@@H](O)c1ccc2c(c1)OCO2)C(=O)Nc1ccc(F)c(Cl)c1` [S5N_M1, Clc(c1)c(F)ccc1NC(=O)C(=O)NCC[C@@H](O)c(cc2)cc(c23)OCO3], in test [2], the “identified as weakly binding in ITC” value was “weakly binding (weakly binding (mean Kd is higher than 100 μM))” and binding was characterised by a dissociation constant (Kd) of 484 ± 22.5 µM.

Turning to `C[C@@](O)(CNC(=O)NCc1cccc2ccccc12)c1ccc2c(c1)OCO2` [S5N_M2, c1cccc(c12)c(ccc2)CNC(=O)NC[C@@](C)(O)c(cc3)cc(c34)OCO4], in test [2], the “identified as active in ITC” value was “active” and the Kd turned out to be 34.9 ± 4.29 µM.

In the case of `O=C(NC[C@@]1(O)CCCNC1)Nc1cc(Cl)ccc1Cl` [S5N_M4, Clc(c1)ccc(Cl)c1NC(=O)NC[C@@]2(O)CCC[NH]C2], in test [2], the “identified as active in ITC” value is “active” and the Kd stood at 81.3 ± 12.7 µM.

Turning to `CC(=O)N1CC[C@@H](NC(=O)c2cc3ccccc3cc2O)[C@H](O)C1` [S5N_M6, c1cccc(c12)cc(c(O)c2)C(=O)N[C@@H]3CCN(C(=O)C)C[C@H]3O], in test [2], the “identified as active in ITC” value is “active” and the equilibrium dissociation constant (Kd) was found to be 57.3 ± 11.9 µM.

For `N[C@H]1C[C@@H](c2cc(N[C@H](CO)Cc3ccccc3)ncn2)C1` [S5N_M7, C1[C@H]([NH2])C[C@@H]1c(c2)ncnc2N[C@H](CO)Cc3ccccc3], in test [2], the “identified as weakly binding in ITC” value is “weakly binding (weakly binding (mean Kd is higher than 100 μM))” and the Kd stood at 268 ± 37.8 µM.

On to `O=C(O)C[C@@H](O)c1nc2ccccc2[nH]1` [S5_M1, [OH]C(=O)C[C@@H](O)c([nH]1)nc(c12)cccc2], for which, in test [3], the “identified as active in FP-assay” value was “active” and half-maximal inhibition (IC50) required 38.7 ± 13.7 µM.

As to `COc1cnc(CSc2nc(C)cc(C)n2)cc1OCC(N)=O` [S5_M2, Cc(n1)cc(C)nc1SCc2cc(c(cn2)OC)OCC(=O)N], in test [3], the “identified as active in FP-assay” value is reported as “active” and the IC50 is 62.4 ± 28.2 µM.

As for `Cc1c(CC(=O)N[C@H](CCCCNC(N)=O)C(=O)O)c(=O)oc2cc(O)ccc12` [S5_M6, c1cc(O)cc(c12)oc(=O)c(c2C)CC(=O)N[C@@H](C([OH])=O)CCCCNC(=O)N], in test [3], the “identified as weakly binding in FP-assay” value was “weakly binding (A weakly binding compound (mean IC50 value higher than 100 μM))” and inhibition was half-maximal at 378 ± 108 µM (IC50).

For `O=C(O)[C@@H](O)[C@@H](O)c1nc2ccccc2[nH]1` [S5_M7, [OH]C(=O)[C@@H](O)[C@@H](O)c([nH]1)nc(c12)cccc2], in test [3], the “identified as active in FP-assay” value is on record as “active” and half-maximal inhibition (IC50) required 16.2 ± 8.2 µM.

On to `Nc1nc(NCCc2cn3ccsc3n2)cc([C@H]2C[C@H](O)C2)n1` [S5_M8, s1ccn(c12)cc(n2)CCNc3cc(nc(n3)N)[C@@H]4C[C@H](C4)O], for which, in test [3], the “identified as active in FP-assay” value is recorded as “active” and the midpoint of inhibition, the IC50, lay at 41.2 ± 10.5 µM.

As for `O=C(CCc1nc2ccccc2[nH]1)NCc1cc(-c2ccccc2)[nH]n1` [S5_M9, c1cccc(c12)[nH]c(n2)CCC(=O)NCc3n[nH]c(c3)-c4ccccc4], in test [3], the “identified as active in FP-assay” value was “active” and 42.6 ± 20.2 µM corresponded to half-maximal inhibition (IC50).

As for `O=C(NCCc1cnccn1)[C@H]1CCCN(C2CCN(Cc3ccncc3)CC2)C1` [S5_M13, c1cnccc1CN(CC2)CCC2[N@@]3CCC[C@@H](C3)C(=O)NCCc4cnccn4], in test [3], the “identified as active in FP-assay” value was “active”.

The compound `Cn1c(CN2CCC(O)CC2)nnc1[C@H]1CCCN(Cc2ncc[nH]2)C1` [S5_M14, C1CC(O)CCN1Cc(n2C)nnc2[C@H]3CCCN(C3)Cc4[nH]cc[n]4] returned a half-maximal inhibitory concentration (IC50) in test [3] of 13.8 ± 14.9 µM.
